In patent US20260285871A1, “Polymorphic Compounds and Uses Thereof” (TYRA BIOSCIENCES, INC., priority 2022, published 2026):

Tests used:
Type in all cases: physicochemical
[1] = Dynamic Vapor Sorption (DVS), moisture sorption/desorption; details: data not shown; for hygroscopicity suggested by vapor sorption data: DVS, 5% to 98% RH
Description: Dynamic Vapor Sorption (DVS): Moisture sorption/desorption data were collected on a DVS-intrinsic vapor sorption analyser (Surface Measurement Systems NA, Allentown, PA, USA) and operating with DVS-intrinsic control software (Version 1.0.5.1). Samples were not dried prior to analysis. Sorption and desorption data were collected over a range from 5% to 98% relative humidity (RH) via 10% RH increments under a nitrogen purge. The equilibrium criterion used for analysis was less than 0.005% weight change in 10 min with a maximum equilibration time of 3 h.

[2] = Crystallization (polymorph) studies of compound 2: fast, reactive, slurry at 40° C., anti-solvent; solids analysed by XRPD; details: solvent 1,2 Prop Diol
Experimental: Forms I-XIII of compound 2 were prepared according to one of the crystallization methods described below, e.g., fast crystallization; reactive crystallization; slurry crystallization or anti-solvent crystallization.
Fast Crystallization Method: In a typical experiment, compound 2 (ca. 10 mg) was dissolved in minimum quantity the stated solvent while heating to 80° C. The resulted solution was allowed to cool down to room temperature. […]
Reactive Crystallization: Benzene sulfonic acid (BSA) was dissolved in THF to prepare a stock solution and used for all the reactive crystallization experiments. Compound A free base (ca. 30 mg) was dissolved in minimum quantity the stated solvent while heating to 80° C. The resultant compound A free base solutions were allowed to cooldown to RT and added one equivalent of BSA stock solution. It was observed that most of the reactions yielded precipitate. […]
Slurry Crystallization at 40° C. using Form I of compound 2: In a typical experiment, compound 2 (ca. 100 mg) was suspended in minimum quantity the stated solvent while heating to 40° C. The resulted slurries were allowed to stir at 40° C. for three days.
Anti-Solvent Crystallization: In a typical experiment, compound 2 (ca. 100 mg) was dissolved in solubilizing solvent. To that solution 200 μL anti-solvent was added slowly. These iterations were continued until the precipitation observed or maximum solvent quantity of ~15 mL.

[3] = Storage of solid form at RT, form followed by XRPD; details: storage at RT for about one month
Experimental: X-Ray Powder Diffraction (XRPD) Data Collection Strategy: XRPD patterns of samples were recorded at room temperature on Aeris X-ray diffractometer (Almelo, The Netherlands) using Cu Kα radiation (λ=1.54 Å) at 40 kV, 15 mA passing through a Ni monochromater. Data were collected in a continuous scan mode with a step size of 0.02° and dwell time of 149 s over an angular range of 3° to 40° 2θ. The sample was loaded on a zero-background holder and gently pressed by a clean glass slide to ensure coplanarity of the sample surface with the surface of the holder. Obtained diffractograms were analysed and plotted with HighScore Plus software (V 5.0; Almelo, The Netherlands).

**Q.** With `C[C@@H](Oc1ccc2[nH]nc(-c3ccc(N4CC5(C4)CN(S(C)(=O)=O)C5)nc3)c2c1)c1c(Cl)cncc1Cl.O=C(O)/C=C/C(=O)O` (stereo in doubt) [Form II of Compound 3] as the compound, how does the “hygroscopicity suggested by vapor sorption data” value (“hygroscopicity suggested” below) [1] read?
**A.** moderately hygroscopic

**Q.** Which “Anti-Solvent Crystallization Result” value ([2]; anti-solvent 4-Me-2-Pentanone) does the source give for `C[C@@H](Oc1ccc2[nH]nc(-c3ccc(N4CC5(C4)CN(S(C)(=O)=O)C5)nc3)c2c1)c1c(Cl)cncc1Cl.O=S(=O)(O)c1ccccc1` [Compound 2] here?
**A.** Form-X

**Q.** What about the “Anti-Solvent Crystallization Result” value ([2]; anti-solvent DEE) of the same compound?
**A.** Form-XI

**Q.** What about the “Anti-Solvent Crystallization Result” value ([2]; anti-solvent EtOAc) of the same compound?
**A.** Form-XI

**Q.** And the “Anti-Solvent Crystallization Result” value ([2]; anti-solvent T-butyl-methyl-ether)?
**A.** Form-XI

**Q.** With `C[C@@H](Oc1ccc2[nH]nc(-c3ccc(N4CC5(C4)CN(S(C)(=O)=O)C5)nc3)c2c1)c1c(Cl)cncc1Cl.O=P(O)(O)O` [Form I of Compound 23] as the compound, how does the “hygroscopicity suggested” value [1] read?
**A.** hygroscopic

**Q.** For `C[C@@H](Oc1ccc2[nH]nc(-c3ccc(N4CC5(C4)CN(S(C)(=O)=O)C5)nc3)c2c1)c1c(Cl)cncc1Cl` [Form I of Compound 24], which “stability suggested by vapor sorption / DVS data” value [1] is on record?
**A.** instability

**Q.** What about the “weight loss observed in the DVS data” value [1] of the same compound?
**A.** about 3.27%

**Q.** With `C[C@@H](Oc1ccc2[nH]nc(-c3ccc(N4CC5(C4)CN(S(C)(=O)=O)C5)nc3)c2c1)c1c(Cl)cncc1Cl.O=C(O)C(O)C(O)C(=O)O` [Form I of Compound 25] as the compound, how does the “hygroscopicity suggested” value [1] read?
**A.** moderately hygroscopic

**Q.** Which “hygroscopicity suggested” value [1] does the source give for `C[C@@H](Oc1ccc2[nH]nc(-c3ccc(N4CC5(C4)CN(S(C)(=O)=O)C5)nc3)c2c1)c1c(Cl)cncc1Cl.O=C(O)CC(=O)O` [Form I of Compound 26] here?
**A.** moderately hygroscopic

**Q.** What about the “weight loss observed in the DVS data” value [1] of the same compound?
**A.** about 2.1%

**Q.** With `C[C@@H](Oc1ccc2[nH]nc(-c3ccc(N4CC5(C4)CN(S(C)(=O)=O)C5)nc3)c2c1)c1c(Cl)cncc1Cl.Cl` [Form II of Compound 1] as the compound, how does the “hygroscopicity suggested” value [1] read?
**A.** moderately hygroscopic

**Q.** For `C[C@@H](Oc1ccc2[nH]nc(-c3ccc(N4CC5(C4)CN(S(C)(=O)=O)C5)nc3)c2c1)c1c(Cl)cncc1Cl` [Form II of Compound 5], which “hygroscopicity suggested” value [1] is on record?
**A.** moderately hygroscopic

**Q.** Which “hygroscopicity suggested” value [1] does the source give for `Br.C[C@@H](Oc1ccc2[nH]nc(-c3ccc(N4CC5(C4)CN(S(C)(=O)=O)C5)nc3)c2c1)c1c(Cl)cncc1Cl` [Form II of Compound 12] here?
**A.** moderately hygroscopic

**Q.** With `C[C@@H](Oc1ccc2[nH]nc(-c3ccc(N4CC5(C4)CN(S(C)(=O)=O)C5)nc3)c2c1)c1c(Cl)cncc1Cl.O=S(=O)(O)c1ccccc1` [Form VIII of compound 2] as the compound, how does the “solid form change during storage” value [3] read?
**A.** transformed to Form I of compound 2
